Test results from ChEMBL document CHEMBL5537110, “SIRT1-dependent mitochondrial biogenesis supports therapeutic effects of 4-butyl-polyhydroxybenzophenone compounds against NAFLD” (Eur J Med Chem, 2023).
Activity calls are given as the source filed them. No cut-off for these calls is given here.

Key:
[1] = target: T1, Peroxisome proliferator-activated receptor gamma coactivator 1-alpha (Homo sapiens) (UniProt Q9UBK2); assay: Binding affinity to PGC1alpha (unknown origin) by surface plasmon resonance assay; conditions: filed as activator
T1 sequence (whole entry): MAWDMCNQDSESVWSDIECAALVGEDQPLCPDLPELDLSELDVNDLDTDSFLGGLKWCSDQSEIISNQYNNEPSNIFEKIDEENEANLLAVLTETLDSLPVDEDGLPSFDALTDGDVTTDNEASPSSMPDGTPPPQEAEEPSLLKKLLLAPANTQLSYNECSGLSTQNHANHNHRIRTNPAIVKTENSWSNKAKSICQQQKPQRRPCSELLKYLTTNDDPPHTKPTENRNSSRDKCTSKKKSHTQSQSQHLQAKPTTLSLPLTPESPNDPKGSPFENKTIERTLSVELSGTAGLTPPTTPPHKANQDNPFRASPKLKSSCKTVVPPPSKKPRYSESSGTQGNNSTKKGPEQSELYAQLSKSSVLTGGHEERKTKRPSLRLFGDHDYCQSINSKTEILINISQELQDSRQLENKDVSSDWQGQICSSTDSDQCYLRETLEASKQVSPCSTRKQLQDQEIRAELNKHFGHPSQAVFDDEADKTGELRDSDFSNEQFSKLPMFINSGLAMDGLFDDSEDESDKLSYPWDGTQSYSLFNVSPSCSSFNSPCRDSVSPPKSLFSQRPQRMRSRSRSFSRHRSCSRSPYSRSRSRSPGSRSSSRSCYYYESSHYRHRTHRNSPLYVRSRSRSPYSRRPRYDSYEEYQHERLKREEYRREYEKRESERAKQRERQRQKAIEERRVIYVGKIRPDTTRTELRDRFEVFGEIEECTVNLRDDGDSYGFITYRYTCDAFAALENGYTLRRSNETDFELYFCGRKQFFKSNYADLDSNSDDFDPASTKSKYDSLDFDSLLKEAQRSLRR

[2] = target: T2, NAD-dependent protein deacetylase sirtuin-1 (Homo sapiens) (UniProt Q96EB6); assay: Binding affinity to SIRT1 (unknown origin) by surface plasmon resonance assay; conditions: filed as activator
T2 sequence (whole entry): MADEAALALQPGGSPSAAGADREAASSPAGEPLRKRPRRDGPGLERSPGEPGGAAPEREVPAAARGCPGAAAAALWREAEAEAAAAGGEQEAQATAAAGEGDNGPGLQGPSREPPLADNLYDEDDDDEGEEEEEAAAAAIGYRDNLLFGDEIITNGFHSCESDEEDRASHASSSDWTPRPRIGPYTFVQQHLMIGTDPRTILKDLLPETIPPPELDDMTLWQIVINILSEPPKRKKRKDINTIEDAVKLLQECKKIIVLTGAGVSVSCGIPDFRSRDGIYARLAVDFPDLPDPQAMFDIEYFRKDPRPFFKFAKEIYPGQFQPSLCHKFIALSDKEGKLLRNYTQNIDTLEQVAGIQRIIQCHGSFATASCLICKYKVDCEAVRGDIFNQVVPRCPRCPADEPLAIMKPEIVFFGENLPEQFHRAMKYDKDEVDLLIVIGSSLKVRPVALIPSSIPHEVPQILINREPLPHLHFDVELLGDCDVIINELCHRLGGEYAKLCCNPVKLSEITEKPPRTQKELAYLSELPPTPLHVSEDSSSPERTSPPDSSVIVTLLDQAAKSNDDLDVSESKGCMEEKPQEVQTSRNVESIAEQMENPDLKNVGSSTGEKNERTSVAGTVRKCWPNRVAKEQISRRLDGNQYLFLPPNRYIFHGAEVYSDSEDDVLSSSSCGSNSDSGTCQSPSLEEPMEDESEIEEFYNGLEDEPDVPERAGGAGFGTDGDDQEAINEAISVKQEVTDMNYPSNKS

EA.hy 926 [3] = assay: Cytoprotective activity against H2O2-induced toxicity in human EA.hy 926 cells assessed as protective rate pretreated with compound for 4 hrs followed by incubation with H2O2 for 2 hrs by absorbance based analysis; type: functional, cell-based
EA.hy 926 [4] = assay: Cytoprotective activity against H2O2-induced toxicity in human EA.hy 926 cells assessed as protective rate at 10 uM pretreated with compound for 4 hrs followed by incubation with H2O2 for 2 hrs by absorbance based analysis; type: functional; conditions: time 6 hrs

SMILES	Activity [1]	Activity [2]	EC50 (EA.hy 926 [3])	Activity (EA.hy 926 [4])
CC(C)Cc1ccc(C(=O)c2ccc(O)c(O)c2)cc1	Active	Active	81 nM	93.75%
CCCCc1ccc(C(=O)c2cc(O)c(Cl)cc2O)cc1	–	–	–	21.66%
CC(C)(C)c1ccc(C(=O)c2c(O)cc(O)cc2O)cc1	–	–	–	-64%
CC(C)(C)c1ccc(C(=O)c2cc(O)ccc2O)cc1	–	–	–	-7%
Cc1c(O)ccc(C(=O)c2ccc(C(C)(C)C)cc2)c1O	–	–	–	-67.36%
CCCCc1ccc(C(=O)c2c(Cl)cc(O)cc2OC)cc1	–	–	–	11.76%
CC(C)Cc1ccc(C(=O)c2ccc(O)c(O)c2O)cc1	Active	Active	118 nM	93.75%
CCCCc1ccc(C(=O)c2c(O)cc(O)cc2Cl)cc1	–	–	–	38.47%
COc1cc(O)cc(Cl)c1C(=O)c1ccc(C(C)(C)C)cc1	–	–	–	-64%
CC(C)(C)c1ccc(C(=O)c2ccc(O)c(O)c2O)cc1	–	–	–	-6.9%
CCCCc1ccc(C(=O)c2ccc(O)c(C)c2O)cc1	–	–	–	2.8%
COc1cc(O)cc(Cl)c1C(=O)c1ccc(CC(C)C)cc1	–	–	–	2.99%
CCCCc1ccc(C(=O)c2cc(O)ccc2O)cc1	–	–	–	39.03%
CCCCc1ccc(C(=O)c2cc(O)c(O)cc2F)cc1	–	–	–	58.82%
CC(C)(C)c1ccc(C(=O)c2cc(O)c(Cl)cc2O)cc1	–	–	–	-67%
CC(C)Cc1ccc(C(=O)c2c(O)cc(O)cc2Cl)cc1	–	–	–	-8.4%
CCCCc1ccc(C(=O)c2ccc(O)c(O)c2O)cc1	–	–	–	64.71%
CC(C)Cc1ccc(C(=O)c2cc(O)ccc2O)cc1	–	–	–	8.96%
CCCCc1ccc(C(=O)c2c(O)cc(O)cc2O)cc1	–	–	–	36.04%
CC(C)Cc1ccc(C(=O)c2cc(O)c(Cl)cc2O)cc1	–	–	–	-3.92%
CC(C)(C)c1ccc(C(=O)c2c(O)cc(O)cc2Cl)cc1	–	–	–	-49%
CC(C)Cc1ccc(C(=O)c2c(O)cc(O)cc2O)cc1	–	–	–	21.63%
Cc1c(O)ccc(C(=O)c2ccc(CC(C)C)cc2)c1O	–	–	–	17.37%
CC(C)(C)c1ccc(C(=O)c2cc(O)c(O)cc2F)cc1	Active	Active	104 nM	80.56%
CC(C)Cc1ccc(C(=O)c2cc(O)c(O)cc2F)cc1	Active	Active	80.8 nM	93.75%
O=c1c(O)c(-c2ccc(O)c(O)c2)oc2cc(O)cc(O)c12 [QUERCETIN]	–	–	2670 nM	55.2%
CCCCc1ccc(C(=O)c2ccc(O)c(O)c2)cc1	Active	Active	84.2 nM	70.59%
